In one experiment the target is T1, glucocorticoid receptor (Rattus norvegicus, UniProt P06536).
T1 construct: receptors in the cytosol of animal target organs; from tissue; host or cells: thymus cytosol of the adrenalectomized rat
T1 sequence (P06536 1-795): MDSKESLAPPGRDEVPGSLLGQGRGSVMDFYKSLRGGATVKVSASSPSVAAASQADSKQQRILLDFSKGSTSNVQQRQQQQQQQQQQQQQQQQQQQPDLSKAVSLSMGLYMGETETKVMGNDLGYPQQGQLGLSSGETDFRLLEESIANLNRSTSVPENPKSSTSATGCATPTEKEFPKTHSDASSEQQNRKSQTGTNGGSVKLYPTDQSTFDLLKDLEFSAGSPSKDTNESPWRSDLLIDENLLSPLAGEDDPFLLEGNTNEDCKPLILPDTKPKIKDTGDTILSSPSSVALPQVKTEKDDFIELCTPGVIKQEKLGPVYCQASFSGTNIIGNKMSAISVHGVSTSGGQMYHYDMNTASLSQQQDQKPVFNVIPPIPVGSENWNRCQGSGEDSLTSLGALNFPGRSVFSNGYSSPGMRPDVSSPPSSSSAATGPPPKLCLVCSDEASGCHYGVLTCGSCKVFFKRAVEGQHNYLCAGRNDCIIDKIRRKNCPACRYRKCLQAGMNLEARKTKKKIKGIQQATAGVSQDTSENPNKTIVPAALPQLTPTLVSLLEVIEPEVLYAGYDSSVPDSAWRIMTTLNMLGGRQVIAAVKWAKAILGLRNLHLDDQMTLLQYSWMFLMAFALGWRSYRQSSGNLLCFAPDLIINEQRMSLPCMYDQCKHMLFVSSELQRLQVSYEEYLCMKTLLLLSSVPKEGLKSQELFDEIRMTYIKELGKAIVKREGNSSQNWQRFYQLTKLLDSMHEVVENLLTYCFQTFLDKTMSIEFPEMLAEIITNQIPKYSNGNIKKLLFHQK
Kind of experiment: Receptor binding affinity, glucocorticoid receptor (competitive binding, thymus cytosol). The conditions noted are these: Dexamethasone = 100%; thymus cytosol of adrenalectomized rat; tracer 3H-dexamethasone. The protocol:
(§1) Measurement of the receptor binding affinity
(§2) The receptor binding affinity was determined by competitive binding of a specifically binding ^3H-labeled hormone (tracer) and the compound to be tested to receptors in the cytosol of animal target organs. Receptor saturation and reaction equilibrium were aimed at here. The following incubation conditions were chosen:
Glucocorticoid receptor: Thymus cytosol of the adrenalectomized rat. Thymi stored at −30° C.
Tracer: ^3H-dexamethasone, 20 nM.
Reference substance: dexamethasone.
(§3) After an incubation of receptor fraction, tracer and competitor for 18 h at 0-4° C., the bound and free steroid were separated by mixing in active carbon/dextran (1%/0.1%), centrifuging off and measuring the receptor-bound ^3H activity in the supernatant.

A further experiment has as its target T2, progesterone receptor (Oryctolagus cuniculus, UniProt P06186).
T2 construct: receptors in the cytosol of animal target organs; from tissue; host or cells: uterus cytosol of the estradiol-primed rabbit
T2 sequence (P06186 1-930): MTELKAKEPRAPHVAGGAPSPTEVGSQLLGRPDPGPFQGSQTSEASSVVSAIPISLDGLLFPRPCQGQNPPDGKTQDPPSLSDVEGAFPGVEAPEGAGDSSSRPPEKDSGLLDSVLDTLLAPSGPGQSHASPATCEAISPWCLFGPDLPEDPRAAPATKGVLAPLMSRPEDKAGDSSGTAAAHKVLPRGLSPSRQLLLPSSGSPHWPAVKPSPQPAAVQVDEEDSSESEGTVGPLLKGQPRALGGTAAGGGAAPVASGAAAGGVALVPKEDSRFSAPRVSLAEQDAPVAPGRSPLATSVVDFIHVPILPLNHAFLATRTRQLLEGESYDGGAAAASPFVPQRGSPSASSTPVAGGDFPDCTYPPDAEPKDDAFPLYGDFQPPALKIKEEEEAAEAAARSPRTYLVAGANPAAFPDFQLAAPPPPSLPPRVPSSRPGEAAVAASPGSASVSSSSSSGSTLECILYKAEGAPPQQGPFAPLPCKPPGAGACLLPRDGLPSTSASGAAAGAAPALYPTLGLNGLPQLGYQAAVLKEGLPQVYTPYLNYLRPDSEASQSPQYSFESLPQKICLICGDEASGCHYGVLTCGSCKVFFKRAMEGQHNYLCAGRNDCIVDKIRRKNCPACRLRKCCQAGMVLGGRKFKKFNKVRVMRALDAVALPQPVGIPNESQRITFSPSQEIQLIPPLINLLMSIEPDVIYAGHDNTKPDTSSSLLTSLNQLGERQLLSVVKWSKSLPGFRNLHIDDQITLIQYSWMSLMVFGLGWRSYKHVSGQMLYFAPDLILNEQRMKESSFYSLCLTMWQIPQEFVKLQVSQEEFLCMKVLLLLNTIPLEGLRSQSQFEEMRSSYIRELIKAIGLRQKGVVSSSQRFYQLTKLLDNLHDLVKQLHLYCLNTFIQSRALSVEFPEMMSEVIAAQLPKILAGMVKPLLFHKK
Kind of experiment: Receptor binding affinity, progesterone receptor (competitive binding, uterus cytosol). The conditions noted are these: Progesterone = 100%; uterus cytosol of estradiol-primed rabbit; tracer 3H-ORG 2058. The protocol: as §1, §2
Progesterone receptor Uterus cytosol of the estradiol-primed rabbit, stored at −30° C.
Buffer for homogenization and incubation: TED buffer 20 mM tris/HCl, pH [sic]=7.4; 1 mM ethylenediamine tetracetate, 2 mM dithiothreitol) containing 250 mM sucrose.
Reference substance: progesterone.
as §3

Experiment [1] relates to early pregnancy in the rat. Kind of experiment: Inhibition of early pregnancy in the rat (early abortive action). In kind it is in vivo. The settings on record: s.c., day 5-7 of pregnancy. As to the method: Inhibition of early pregnancy in the rat Female rats weighing 180-200 g were mated in the proestrus stage. On detection of sperm in the vaginal region on the next day, this is set as day 1 (d=1) of the pregnancy. The rats are treated with test substance or vehicle using 0.2 ml of benzoyl benzoate/castor oil (1+4 v/v) subcutaneously from day 5 to day 7 (d5-d7); autopsy is carried oust painlessly on day d9. The uterus horns was [sic] dissected and examined for intact or damaged nidation sites.

The subject of a further experiment is pregnancy of guinea pigs. Kind of experiment: Inhibition of late pregnancy in pregnant guinea pigs (abortive action). In kind it is in vivo. The settings on record: guinea pig; for Complete inhibition of pregnancy % / Complete inhibition of pregnancy N#/N (non-gravid/mated females): s.c., day 43-44 of pregnancy. As to the method: Inhibition of late pregnancy in pregnant guinea pigs
Pregnant guinea pigs are treated with test substances from day 43-44. Experimental animals were […] with the test substance in oily solution (0.2-2.0 ml of benzoyl benzoate/castor oil 1+4 v/v) 1× daily on day 43 and 44. Control animals were treated with vehicle. The pregnancy of the animals was monitored until day 50, in particular, the expulsion of fetuses and placentas was observed and recorded.

For `COCC1(OC)CCC2C3CCC4=CC(=O)CCC4=C3C(c3ccc(C=NOC(=O)SC)cc3)CC21C` (stereo not drawn) [Example 1, 4-[17β-Methoxy-17α-(methoxymethyl)-3-oxoestra-4,9-dien-11β-yl]benzaldehyde 1-(E)-[O-(methylthio)carbonyl]oxime], on glucocorticoid receptor, the “Relative molar binding affinity RBA (%) to the glucocorticoid receptor” value is given as 49%. The “Relative molar binding affinity RBA (%) to the progesterone receptor” value on progesterone receptor is reported as 159%.
As for `COC[C@@]1(O)CC[C@H]2[C@@H]3CCC4=CC(=O)CCC4=C3[C@@H](c3ccc(/C=N/OC(=O)SC)cc3)C[C@@]21C` [Example 2, 4-[17β-Hydroxy-17α-(methoxymethyl)-3-oxoestra-4,9-dien-11β-yl]benzaldehyde 1-(E)-[O-(methylthio)carbonyl]oxime], in experiment [1] (3 mg/(animal × day)), the “Complete inhibition of pregnancy %” value is reported as 0% and the “Complete inhibition of pregnancy N#/N (non-gravid/mated females)” value is listed as 0/4. For the same compound, the “Relative molar binding affinity RBA (%) to the glucocorticoid receptor” value at glucocorticoid receptor is on record as 52%. Besides, the “Relative molar binding affinity RBA (%) to the progesterone receptor” value on progesterone receptor is on record as 185%.
Take `CCSC(=O)O/N=C/c1ccc([C@H]2C[C@@]3(C)[C@@H](CC[C@]3(COC)OC)[C@@H]3CCC4=CC(=O)CCC4=C32)cc1` [Example 3, 4-[17β-Methoxy-17α-(methoxymethyl)-3-oxoestra-4,9-dien-11β-yl]benzaldehyde 1-(E)-[O-(ethylthio)carbonyl]oxime]: the “Complete inhibition of pregnancy %” value with pregnancy of guinea pigs (10 mg/animal/day) is 0%; in the experiment with pregnancy of guinea pigs (30 mg/animal/day) it was 0%; in the experiment on pregnancy of guinea pigs (100 mg/animal/day), 0%; in experiment [1] (1 mg/(animal × day)), 0%; in experiment [1] (3 mg/(animal × day)) it was 0%; in experiment [1] (10 mg/(animal × day)) it was 20%. Moreover, the “Complete inhibition of pregnancy N#/N (non-gravid/mated females)” value in the experiment on pregnancy of guinea pigs (10 mg/animal/day) is given as 0/7; with pregnancy of guinea pigs (30 mg/animal/day), 0/7; in the experiment with pregnancy of guinea pigs (100 mg/animal/day), 0/7; in experiment [1] (1 mg/(animal × day)), 0/5; in experiment [1] (3 mg/(animal × day)), 0/5; in experiment [1] (10 mg/(animal × day)) it was 1/5. The “Interference with the pregnancy of guinea pigs (in words)” value in the experiment with pregnancy of guinea pigs (very high doses) was “incapable even at very high doses of interfering with the pregnancy of guinea pigs”. At glucocorticoid receptor, the “Relative molar binding affinity RBA (%) to the glucocorticoid receptor” value is 42%. Also, the “Relative molar binding affinity RBA (%) to the progesterone receptor” value on progesterone receptor is recorded as 164%.
As for `CCSC(=O)ON=Cc1ccc(C2CC3(C)C(CCC3(O)COC)C3CCC4=CC(=O)CCC4=C23)cc1` (stereo not drawn) [Example 4, 4-[17β-Hydroxy-17α-(methoxymethyl)-3-oxoestra-4,9-dien-11β-yl]benzaldehyde 1-(E)-[O-(ethylthio)carbonyl]oxime], the “Relative molar binding affinity RBA (%) to the glucocorticoid receptor” value at glucocorticoid receptor was 53%. At progesterone receptor, the “Relative molar binding affinity RBA (%) to the progesterone receptor” value is recorded as 44%.
As for `CCSC(=O)ON=Cc1ccc(C2CC3(C)C(CCC3(O)CN=[N+]=[N-])C3CCC4=CC(=O)CCC4=C23)cc1` (stereo not drawn) [Example 5, 4-[17β-Hydroxy-17α-(azidomethyl)-3-oxoestra-4,9-dien-11β-yl]benzaldehyde-1-(E)-[O-(ethylthio)carbonyl]oxime], the “Relative molar binding affinity RBA (%) to the glucocorticoid receptor” value at glucocorticoid receptor worked out at 20%. Moreover, the “Relative molar binding affinity RBA (%) to the progesterone receptor” value on progesterone receptor is 77%.
As for `CCSC(=O)ON=Cc1ccc(C2CC3(C)C(CCC3(O)CCl)C3CCC4=CC(=O)CCC4=C23)cc1` (stereo not drawn) [Example 6, 4-[17β-Hydroxy-17α-(chloromethyl)-3-oxoestra-4,9-dien-11β-yl]benzaldehyde 1-(E)-[O-(ethylthio)carbonyl]oxime], the “Relative molar binding affinity RBA (%) to the glucocorticoid receptor” value at glucocorticoid receptor amounted to 22%. For the same compound, at progesterone receptor, the “Relative molar binding affinity RBA (%) to the progesterone receptor” value is 64%.
On to `CCSC(=O)O/N=C/c1ccc([C@H]2C[C@@]3(C)[C@@H](CC[C@@]3(O)CC#N)[C@@H]3CCC4=CC(=O)CCC4=C32)cc1` [Example 7], for which, in experiment [1] (1 mg/(animal × day)), the “Complete inhibition of pregnancy %” value was 0% and the “Complete inhibition of pregnancy N#/N (non-gravid/mated females)” value is 0/5. Also, in experiment [1] (3 mg/(animal × day)), the “Complete inhibition of pregnancy %” value turned out to be 0% and the “Complete inhibition of pregnancy N#/N (non-gravid/mated females)” value is on record as 0/5. In addition, the “Relative molar binding affinity RBA (%) to the glucocorticoid receptor” value at glucocorticoid receptor was determined as 2%. Besides, at progesterone receptor, the “Relative molar binding affinity RBA (%) to the progesterone receptor” value was determined as 42%.
Regarding `CCSC(=O)OC[C@]1(O)CC[C@H]2[C@@H]3CCC4=CC(=O)CCC4=C3[C@@H](c3ccc(/C=N/OC(=O)SCC)cc3)C[C@@]21C` [Example 8, 4-{17β-Hydroxy-17α-[(ethylthiocarbonyloxy)methyl]3-oxoestra-4,9-dien-11β-yl]benzaldehyde 1-(E)-[O-(ethylthio)carbonyl]oxime], the “Relative molar binding affinity RBA (%) to the glucocorticoid receptor” value at glucocorticoid receptor amounted to 32%. Moreover, the “Relative molar binding affinity RBA (%) to the progesterone receptor” value on progesterone receptor is given as 74%.
Take `COC[C@]1(OC)CC[C@H]2[C@@H]3CCC4=CC(=O)CCC4=C3[C@@H](c3ccc(/C=N/O)cc3)C[C@@]21C` [J 867, 11β-[4-(hydroximinomethyl)phenyl]-17β-methoxy-17α-methoxymethyl-estra-4,9-dien-3-one, reference compound]: the “Complete inhibition of pregnancy %” value in experiment [1] (0.3 mg/(animal × day)) is recorded as 0%; in experiment [1] (1 mg/(animal × day)), 100%; in experiment [1] (3 mg/(animal × day)), 100%. Further, the “Complete inhibition of pregnancy N#/N (non-gravid/mated females)” value in experiment [1] (0.3 mg/(animal × day)) is 0/5; in experiment [1] (1 mg/(animal × day)), 5/5; in experiment [1] (3 mg/(animal × day)), 5/5. Also, the “Relative molar binding affinity RBA (%) to the glucocorticoid receptor” value on glucocorticoid receptor is on record as 77%. Moreover, the “Relative molar binding affinity RBA (%) to the progesterone receptor” value at progesterone receptor amounted to 302%.

The record behind these values is patent US6365582B1, “S-substitute 11β-benzaldoxime-estra-4, 9-diene-carbonic acid thiolesters, method for the production thereof and pharmaceutical preparations containing these compounds” (Jenapharm GmbH & Co. KG, priority 1998, dated 2002).
